This note sets out measurements from US9388147B2 (Receptos, Inc., priority 2009, dated 2016).

In the experiment the target is S1P1/EDG1 (Homo sapiens, UniProt P21453). Kind of experiment: S1P1 CRE-bla CHOK1 reporter assay, inhibition of Forskolin induced cAMP. The class given is cell-based. The conditions noted are these: agonist activity range, S1P1 CRE-bla CHOK1, 2 μM Forskolin; read-out: S1P1 ACTIVITY
Chain of S1P1/EDG1 (P21453 whole entry): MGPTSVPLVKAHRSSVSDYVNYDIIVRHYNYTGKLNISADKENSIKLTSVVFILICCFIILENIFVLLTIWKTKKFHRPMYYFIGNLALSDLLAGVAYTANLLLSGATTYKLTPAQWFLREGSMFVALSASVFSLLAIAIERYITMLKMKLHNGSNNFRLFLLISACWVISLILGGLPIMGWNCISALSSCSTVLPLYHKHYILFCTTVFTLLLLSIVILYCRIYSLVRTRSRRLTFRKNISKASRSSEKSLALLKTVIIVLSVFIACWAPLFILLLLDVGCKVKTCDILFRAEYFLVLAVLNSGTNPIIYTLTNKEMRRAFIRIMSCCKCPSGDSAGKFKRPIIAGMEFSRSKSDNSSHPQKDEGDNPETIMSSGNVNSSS
As for the experimental part: Generation of S1P1-Mediated Inhibition of cAMP Reporter Assay
A mammalian expression plasmid containing S1P1/EDG1 cloned into pcDNA3.1 was purchased from Missouri S&T cDNA Resource Centre. […] S1P1/pcDNA3.1 was transfected into the CRE-bla CHO K1 (Invitrogen) cell line, and stable single cell clones were selected using standard techniques.
S1P1 CRE-Bla CHOK1 Reporter Assay—Characterization of S1P1 Agonists
Cells were seeded into 384-well black wall/clear bottom plates at 10^4 cells/well/19.5 μl assay media (DMEM-phenol free, 0.5% charcoal/dextran stripped serum, 2 mM glutamine, 0.1 mM NEAA, 1 mM Na-Pyruvate, 25 mM Hepes) and incubated for 18 hrs at 37° C. in 5% CO2. Dose response curves (10-point) were generated in 10 mM Hepes, 0.1% Pluronic F127, in the presence of Forskolin. Cells were treated with 0.5 μl compound in the presence of 2 μM Forskolin for 4 hrs at 37° C. The FRET-based β-lactamase fluorescent substrate (LiveBLAzer™-FRET B/G Loading Kit CC4-AM; Invitrogen) was prepared according to manufacturer's directions, and incubated with cells for 2 hrs at room temperature. […] Data was analyzed by non-linear regression to determine the EC50 for inhibition of Forskolin induced cAMP.
On to `CC(C)Oc1ccc(-c2nc(-c3cccc4c3CC[C@H]4N)no2)cc1` [Compound 96, (R)-4-(5-(4-isopropoxyphenyl)-1,2,4-oxadiazol-3-yl)-2,3-dihydro-1H-inden-1-amine], for which the EC50 is over 5 nM.
As for `CC(C)Oc1cc(-c2nc(-c3cccc4c3CC[C@H]4N)no2)ccc1C#N` [Compound 98, (R)-4-(3-(1-amino-2,3-dihydro-1H-inden-4-yl)-1,2,4-oxadiazol-5-yl)-2-isopropoxy benzonitrile], the EC50 was over 5 nM.
In the case of `CC(C)Oc1ccc(C#N)cc1-c1nc(-c2cccc3c2CC[C@H]3N)no1` [Compound 99, (R)-3-(3-(1-amino-2,3-dihydro-1H-inden-4-yl)-1,2,4-oxadiazol-5-yl)-4-isopropoxy benzonitrile] it was over 5 nM; in that of `N#Cc1cc(-c2nc(-c3cccc4c3CC[C@H]4N)no2)ccc1OCC1CC1` [Compound 100, (R)-5-(3-(1-amino-2,3-dihydro-1H-inden-4-yl)-1,2,4-oxadiazol-5-yl)-2-(cyclopropylmethoxy)benzonitrile], 0.5 to 5 nM; in that of `CC(C)Oc1ccc(-c2nc(-c3cccc4c3CC[C@H]4NCCO)no2)cc1Br` [Compound 101], 0.5 to 5 nM.
The same measure for `CN[C@H]1CCc2c(-c3noc(-c4ccc(OC(C)C)c(C#N)c4)n3)cccc21` [Compound 105]: 0.05 to 0.5 nM; for `CCN[C@H]1CCc2c(-c3noc(-c4ccc(OC(C)C)c(C#N)c4)n3)cccc21` [Compound 107]: 0.05 to 0.5 nM; for `CC(C)Oc1ccc(-c2nc(-c3cccc4c3CC[C@@H]4N(C)C(=O)CO)no2)cc1C#N` [Compound 110]: 0.05 to 0.5 nM.
In the case of `CC(C)Oc1ccc(-c2nc(-c3cccc4c3CC[C@H]4N(CCO)S(C)(=O)=O)no2)cc1C#N` [Compound 112, (R)-N-(4-(5-(3 cyano-4-isopropoxyphenyl)-1,2,4-oxadiazol-3-yl)-2,3-dihydro-1H-inden-1-yl)-N-(2-hydroxyethyl)methanesulfonamide] it was 0.5 to 5 nM; in that of `CC(=O)N(CCO)[C@@H]1CCc2c(-c3noc(-c4ccc(OC(C)C)c(C#N)c4)n3)cccc21` [Compound 113], 0.5 to 5 nM; in that of `CCN(CCO)[C@@H]1CCc2c(-c3noc(-c4ccc(OC(C)C)c(C#N)c4)n3)cccc21` [Compound 114], 0.05 to 0.5 nM.
`CC(C)Oc1ccc(-c2nc(-c3cccc4c3CC[C@H]4N(C)CC(=O)N(C)C)no2)cc1C#N` [Compound 115]: the EC50 was 0.5 to 5 nM.
The same measure for `CCN(CC(=O)N(C)C)[C@@H]1CCc2c(-c3noc(-c4ccc(OC(C)C)c(C#N)c4)n3)cccc21` [Compound 116]: 0.5 to 5 nM; for `CC(C)Oc1ccc(-c2nc(-c3cccc4c3CC[C@H]4N(CCO)S(=O)(=O)c3ccccc3)no2)cc1C#N` [Compound 117]: over 5 nM.
In the case of `CC(C)Oc1ccc(-c2nc(-c3cccc4c3CC[C@H]4N(CCO)CCO)no2)cc1C#N` [Compound 118] it was 0.05 to 0.5 nM; in that of `CC(C)Oc1ccc(-c2nc(-c3cccc4c3CC[C@@H]4NC[C@@H](O)[C@H](O)[C@H](O)CO)no2)cc1C#N` [Compound 119, 2-isopropoxy-5-(3-((S)-1-(((2R,3S,4R)-2,3,4,5-tetrahydroxypentyl)amino)-2,3-dihydro-1H-inden-4-yl)-1,2,4-oxadiazol-5-yl)benzonitrile], 0.5 to 5 nM.
The same measure for `CC(C)Oc1ccc(-c2nc(-c3cccc4c3CC[C@@H]4NCC(=O)N(C)C)no2)cc1C(N)=O` [Compound 121]: over 5 nM; for `CC(C)Oc1ccc(-c2nc(-c3cccc4c3CC[C@H]4NCCF)no2)cc1C#N` [Compound 124, (R)-5-(3-(1-((2-fluoroethyl)amino)-2,3-dihydro-1H-inden-4-yl)-1,2,4-oxadiazol-5-yl)-2-isopropoxybenzonitrile]: 0.05 to 0.5 nM.
Regarding `CC(C)Oc1ccc(-c2nc(-c3cccc4c3CC[C@H]4NCCS(C)(=O)=O)no2)cc1C#N` [Compound 125, (R)-2-isopropoxy-5-(3-(1-((2-(methylsulfonyl)ethyl)amino)-2,3-dihydro-1H-inden-4-yl)-1,2,4-oxadiazol-5-yl)benzonitrile], the EC50 lay within 0.05 to 0.5 nM.
The same measure for `CC(C)Oc1ccc(-c2nc(-c3cccc4c3CC[C@@H]4NCCS(C)(=O)=O)no2)cc1C#N` [Compound 126]: 0.05 to 0.5 nM; for `CC(C)Oc1ccc(-c2nc(-c3cccc4c3CC[C@H]4NCC(=O)N3CC3)no2)cc1C#N` [Compound 127]: 0.5 to 5 nM.
The same measure for `CC(C)Oc1ccc(-c2nc(-c3cccc4c3CC[C@H]4NCC(=O)N3CCC3)no2)cc1C#N` [Compound 128]: 0.05 to 0.5 nM.
In the case of `CC(C)Oc1ccc(-c2nc(-c3cccc4c3CC[C@H]4NCC(=O)N3CCCC3)no2)cc1C#N` [Compound 129] it was 0.05 to 0.5 nM; in that of `CC(C)Oc1ccc(-c2nc(-c3cccc4c3CC[C@H]4NCC(=O)N3CCCCC3)no2)cc1C#N` [Compound 130], 0.5 to 5 nM; in that of `CC(C)Oc1ccc(-c2nc(-c3cccc4c3CC[C@H]4NCC(=O)N3CCNCC3)no2)cc1C#N` [Compound 131], over 5 nM.
As for `CC(C)Oc1ccc(-c2nc(-c3cccc4c3CC[C@H]4NCC(=O)N3CCN(C)CC3)no2)cc1C#N` [Compound 132], the EC50 was in the range of 0.5 to 5 nM.
As for `CC(C)Oc1ccc(-c2nc(-c3cccc4c3CC[C@H]4NCC(=O)N3CC[C@@H](O)C3)no2)cc1C#N` [Compound 133], the EC50 lay in the range of 0.05 to 0.5 nM.
Turning to `CC(C)Oc1ccc(-c2nc(-c3cccc4c3CC[C@H]4NCC(=O)N3CC[C@H](O)C3)no2)cc1C#N` [Compound 134], the EC50 was 0.05 to 0.5 nM.
As for `CC(C)Oc1ccc(-c2nc(-c3cccc4c3CC[C@H]4NCC(=O)NCCO)no2)cc1C#N` [Compound 135], the EC50 fell in the range of 0.05 to 0.5 nM.
For the compound `CC(C)Oc1ccc(-c2nc(-c3cccc4c3CC[C@@H]4NC(=O)CN(C)C)no2)cc1C#N` [Compound 136], the EC50 was in the range of 0.05 to 0.5 nM.
The same measure for `CC(C)Oc1ccc(-c2nc(-c3cccc4c3CC[C@@H]4NC(=O)CO)no2)cc1C#N` [Compound 137]: under 0.05 nM; for `CC(=O)N[C@@H]1CCc2c(-c3noc(-c4ccc(OC(C)C)c(C#N)c4)n3)cccc21` [Compound 138, (R)-N-(4-(5-(3-cyano-4-isopropoxyphenyl)-1,2,4-oxadiazol-3-yl)-2,3-dihydro-1H-inden-1-yl)acetamide]: under 0.05 nM.
The same measure for `CC(=O)N[C@H]1CCc2c(-c3noc(-c4ccc(OC(C)C)c(C#N)c4)n3)cccc21` [Compound 139, (S)-N-(4-(5-(3 cyano-4-isopropoxyphenyl)-1,2,4-oxadiazol-3-yl)-2,3-dihydro-1H-inden-1-yl)acetamide]: 0.05 to 0.5 nM; for `CC(C)Oc1ccc(-c2nc(-c3cccc4c3CC[C@H]4NCC(F)F)no2)cc1C#N` [Compound 140]: 0.5 to 5 nM.
In the case of `CC(C)Oc1ccc(-c2nc(-c3cccc4c3CC[C@@H]4NCC(F)F)no2)cc1C#N` [Compound 141] it was 0.05 to 0.5 nM; in that of `CC(C)Oc1ccc(-c2nc(-c3cccc4c3CC[C@@H]4NCCF)no2)cc1C#N` [Compound 142], 0.05 to 0.5 nM; in that of `CN[C@@H]1CCc2c(-c3noc(-c4ccc(OC(C)C)c(C#N)c4)n3)cccc21` [Compound 143], 0.05 to 0.5 nM.
On to `CCCN[C@H]1CCc2c(-c3noc(-c4ccc(OC(C)C)c(C#N)c4)n3)cccc21` [Compound 144], for which the EC50 is 0.05 to 0.5 nM.
In the case of `COC(=O)CCCN[C@H]1CCc2c(-c3noc(-c4ccc(OC(C)C)c(C#N)c4)n3)cccc21` [Compound 145] it was under 0.05 nM.
In the case of `CC(C)Oc1ccc(-c2nc(-c3cccc4c3CC[C@@H]4NCCCC(=O)O)no2)cc1C#N` [Compound 146] it was under 0.05 nM; in that of `CC(C)Oc1ccc(-c2nc(-c3cccc4c3CC[C@@H]4NCCCCC(=O)O)no2)cc1C#N` [Compound 148], under 0.05 nM.
In the case of `COC(=O)N[C@@H]1CCc2c(-c3noc(-c4ccc(OC(C)C)c(C#N)c4)n3)cccc21` [Compound 149, (R)-methyl (4-(5-(3-cyano-4-isopropoxyphenyl)-1,2,4-oxadiazol-3-yl)-2,3-dihydro-1H-inden-1-yl)carbamate] it was 0.05 to 0.5 nM; in that of `COC(=O)N[C@H]1CCc2c(-c3noc(-c4ccc(OC(C)C)c(C#N)c4)n3)cccc21` [Compound 150], 0.05 to 0.5 nM.
With `CCOC(=O)N[C@@H]1CCc2c(-c3noc(-c4ccc(OC(C)C)c(C#N)c4)n3)cccc21` [Compound 151], the EC50 fell in the range of 0.5 to 5 nM.
In the case of `CCOC(=O)N[C@H]1CCc2c(-c3noc(-c4ccc(OC(C)C)c(C#N)c4)n3)cccc21` [Compound 152] it was 0.5 to 5 nM.
As for `CC(C)Oc1ccc(-c2nc(-c3cccc4c3CC[C@@H]4NC(=O)OCCO)no2)cc1C#N` [Compound 153], the EC50 is 0.05 to 0.5 nM.
In the case of `CC(C)Oc1ccc(-c2nc(-c3cccc4c3CC[C@H]4N3CCOC3=O)no2)cc1C#N` [Compound 154, (R)-2-isopropoxy-5-(3-(1-(2-oxooxazolidin-3-yl)-2,3-dihydro-1H-inden-4-yl)-1,2,4-oxadiazol-5-yl)benzonitrile] it was 0.05 to 0.5 nM.
As to `CC(C)Oc1ccc(-c2nc(-c3cccc4c3CC[C@@H]4N3CCOC3=O)no2)cc1C#N` [Compound 155], the EC50 was in the range of 0.05 to 0.5 nM.
In the case of `CC(C)Oc1ccc(-c2nc(-c3cccc4c3CC[C@H]4NCc3ccccc3)no2)cc1C#N` [Compound 156] it was 0.5 to 5 nM; in that of `CC(C)Oc1ccc(-c2nc(-c3cccc4c3CC[C@@H]4NCc3ccccc3)no2)cc1C#N` [Compound 157], 0.5 to 5 nM.
